Assay results published in ChEMBL document CHEMBL5325405, “Rationally designed donepezil-based hydroxamates modulate Sig-1R and HDAC isoforms to exert anti-glioblastoma effects” (Eur J Med Chem, 2023).
Activity calls are given as the source filed them. The calls are words filed in the database; no cut-off is given here.

What was measured:
Histone deacetylase 1 = Histone deacetylase 1 (Homo sapiens, UniProt Q13547); assay: Inhibition of human HDAC1
U-87 MG [1] = assay: Cytotoxicity against human U-87 MG cells assessed as reduction in cell growth at 10 uM measured after 3 days by MTT assay; type: functional, U-87MG ATCC; design: scale not given: the % may be the effect or the level left; settings: time 3 day
Astrocyte = assay: Cytotoxicity against primary astrocyte cells (unknown origin) assessed as reduction in cell growth at 3 uM measured after 3 days by MTT assay; type: toxicity, cell-based; settings: 72 h, time 3 day
GBM [2] = assay: Antitumor activity against Temozolomide-resistant patient derived GBM cells assessed as reduction in cell growth measured after 3 uM measured after 3 days by MTT assay; type: functional, cell-based; settings: Homo sapiens, time 3.0 day
[3] = target: T1, Protein deacetylase HDAC6 (Homo sapiens, UniProt Q9UBN7); assay: Inhibition of human HDAC6
T1 sequence (Q9UBN7 whole entry): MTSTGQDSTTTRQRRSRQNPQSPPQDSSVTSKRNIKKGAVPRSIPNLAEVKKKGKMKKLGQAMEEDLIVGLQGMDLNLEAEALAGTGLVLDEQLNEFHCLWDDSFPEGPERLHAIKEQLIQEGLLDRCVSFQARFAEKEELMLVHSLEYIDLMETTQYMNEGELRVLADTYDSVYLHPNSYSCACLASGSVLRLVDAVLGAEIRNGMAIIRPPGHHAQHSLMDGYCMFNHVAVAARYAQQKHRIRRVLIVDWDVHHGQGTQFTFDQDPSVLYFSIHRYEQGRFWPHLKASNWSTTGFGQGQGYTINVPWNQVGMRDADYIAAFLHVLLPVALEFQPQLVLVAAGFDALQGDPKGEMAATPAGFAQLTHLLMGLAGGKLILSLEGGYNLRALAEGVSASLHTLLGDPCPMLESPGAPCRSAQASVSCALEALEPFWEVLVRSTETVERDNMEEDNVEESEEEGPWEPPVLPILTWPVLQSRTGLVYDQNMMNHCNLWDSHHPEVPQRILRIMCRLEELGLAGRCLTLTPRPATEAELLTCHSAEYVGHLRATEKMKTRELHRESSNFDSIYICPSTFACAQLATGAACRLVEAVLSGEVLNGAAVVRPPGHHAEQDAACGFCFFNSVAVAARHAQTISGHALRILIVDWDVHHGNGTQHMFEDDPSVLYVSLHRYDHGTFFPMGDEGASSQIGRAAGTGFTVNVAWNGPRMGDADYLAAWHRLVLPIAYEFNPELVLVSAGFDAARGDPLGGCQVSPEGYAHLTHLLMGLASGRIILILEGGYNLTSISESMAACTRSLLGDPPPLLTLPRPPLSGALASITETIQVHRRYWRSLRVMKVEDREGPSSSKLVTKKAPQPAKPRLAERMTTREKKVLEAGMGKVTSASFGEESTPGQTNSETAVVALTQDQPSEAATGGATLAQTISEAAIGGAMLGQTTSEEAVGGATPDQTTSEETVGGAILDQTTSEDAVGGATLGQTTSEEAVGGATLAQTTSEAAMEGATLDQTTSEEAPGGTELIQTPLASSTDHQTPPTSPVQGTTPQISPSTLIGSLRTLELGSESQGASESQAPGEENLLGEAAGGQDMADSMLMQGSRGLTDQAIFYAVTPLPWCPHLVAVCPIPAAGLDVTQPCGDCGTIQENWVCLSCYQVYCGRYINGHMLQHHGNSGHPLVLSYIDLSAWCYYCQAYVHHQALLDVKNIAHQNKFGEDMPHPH

Histone deacetylase 2 = Histone deacetylase 2 (Homo sapiens, UniProt Q92769); assay: Inhibition of human HDAC2
U-87 MG [4] = assay: cells; type: functional, cell-based, U-87MG ATCC; settings: Homo sapiens
Histone deacetylase 8 = target: T2, Histone deacetylase 8 (Homo sapiens, UniProt Q9BY41); assay: Inhibition of human HDAC8
T2 sequence (Q9BY41 whole entry): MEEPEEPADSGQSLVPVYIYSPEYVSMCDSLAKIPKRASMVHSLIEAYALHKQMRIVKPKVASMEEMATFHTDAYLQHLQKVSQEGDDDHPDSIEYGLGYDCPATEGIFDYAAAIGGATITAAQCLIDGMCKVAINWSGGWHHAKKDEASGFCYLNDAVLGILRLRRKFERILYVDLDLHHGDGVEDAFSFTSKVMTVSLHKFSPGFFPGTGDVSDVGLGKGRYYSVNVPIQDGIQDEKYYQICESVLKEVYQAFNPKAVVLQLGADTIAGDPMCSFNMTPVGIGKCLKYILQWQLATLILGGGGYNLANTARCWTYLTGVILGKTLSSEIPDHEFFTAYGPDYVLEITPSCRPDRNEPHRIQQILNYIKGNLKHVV

A 172 [5] = assay: Upregulation of acetylated Sig-1R expression in human A-172 cells by immunoblotting analysis; type: functional, cell-based
A 172 [6] = assay: Induction of cell cycle arrest in human A-172 cells assessed as decrease in accumulation of cells at S phase at 10 uM measured after 24 hrs by propidium iodide staining based flow cytometry analysis; type: functional
A 172 [7] = assay: Induction of cell cycle arrest in human A-172 cells assessed as accumulation of cells at subG1 phase at 10 uM measured after 48 hrs by propidium iodide staining based flow cytometry analysis; type: functional
A 172 [8] = assay: Induction of cell cycle arrest in human A-172 cells assessed as increase in accumulation of cells at G2/M phase at 10 uM measured after 24 hrs by propidium iodide staining based flow cytometry analysis; type: functional
A 172 [9] = assay: Induction of cell cycle arrest in human A-172 cells assessed as decrease in accumulation of cells at G0/G1 phase at 10 uM measured after 24 hrs by propidium iodide staining based flow cytometry analysis; type: functional
GBM [10] = assay: Inhibition of colony formation in Temozolomide-resistant patient derived pt 3 GBM cells at 3 to 30 uM measured after 3 days by crystal violet staining based analysis; type: functional, cell-based; settings: Homo sapiens, dose 3-30 µM, time 3.0 day
GBM [11] = assay: Inhibition of colony formation in Temozolomide-resistant patient derived pt 5 GBM cells at 3 to 30 uM measured after 3 days by crystal violet staining based analysis; type: functional, cell-based; settings: Homo sapiens, dose 3-30 µM, time 3.0 day
U-87 MG [12] = assay: Cytotoxicity against human U-87 MG cells assessed as reduction in cell growth at 30 uM measured after 3 days by MTT assay; type: functional, U-87MG ATCC; design: scale not given: the % may be the effect or the level left; settings: time 3 day
Glioblastoma stem cell [13] = assay: Antiproliferative activity against Temozolomide-resistant patient derived pt 3 Glioblastoma stem cell sphere assessed as reduction in cell viability at 30 uM measure after 3 days by MTT assay; type: functional, cell-based; settings: Homo sapiens, time 3.0 day
Glioblastoma stem cell [14] = assay: Antiproliferative activity against Temozolomide-resistant patient derived pt 5 Glioblastoma stem cell sphere assessed as reduction in cell viability at 30 uM measure after 3 days by MTT assay; type: functional, cell-based; settings: Homo sapiens, time 3.0 day
U-87 MG [15] = assay: Antitumor activity against Temozolomide-resistant human U-87 MG cells xenografted in orthotopic BALB/c mouse assessed as prolongation of animal survival at 10 mg/kg, ip qod; type: functional, organism-based; settings: U-87MG ATCC
A 172 [16] = assay: Downregulation of Spl expression in human A-172 cells at 1 to 10 uM measured after 16 hrs by Western blotting analysis; type: functional, cell-based; settings: dose 1-10 µM
Glioblastoma stem cell [17] = assay: Antiproliferative activity against Temozolomide-resistant patient derived pt 5 Glioblastoma stem cell sphere assessed as reduction in cell viability at 10 uM measure after 3 days by MTT assay; type: functional, cell-based; settings: Homo sapiens, time 3.0 day
GBM [18] = assay: Inhibition of colony formation in Temozolomide-resistant patient derived pt 5 GBM cells at 10 uM measured after 3 days by crystal violet staining based analysis; type: functional, cell-based; settings: Homo sapiens, time 3.0 day
A 172 [19] = assay: Upregulation of acetylated tubulin expression in human A-172 cells at 1 to 10 uM measured after 8 to 24 hrs by Western blotting analysis; type: functional, cell-based; settings: dose 1-10 µM, time 8-24 hrs
A 172 [20] = assay: […] caspase-3 expression in human A-172 cells at 1 to 10 uM measured after 16 hrs by Western blotting analysis; type: functional, cell-based; settings: dose 1-10 µM
A 172 [21] = assay: Upregulation of acetylated H3 k9/k14 expression in human A-172 cells at 1 to 10 uM measured after 8 to 24 hrs by Western blotting analysis; type: functional, cell-based; settings: dose 1-10 µM, time 8-24 hrs
A 172 [22] = assay: Downregulation of PCNA expression in human A-172 cells at 1 to 10 uM measured after 16 hrs by Western blotting analysis; type: functional, cell-based; settings: dose 1-10 µM
Glioblastoma stem cell [23] = assay: Antiproliferative activity against Temozolomide-resistant patient derived pt 3 Glioblastoma stem cell sphere assessed as reduction in cell viability at 10 uM measure after 3 days by MTT assay; type: functional, cell-based; settings: Homo sapiens, time 3.0 day
GBM [24] = assay: Inhibition of colony formation in Temozolomide-resistant patient derived pt 3 GBM cells at 10 uM measured after 3 days by crystal violet staining based analysis; type: functional, cell-based; settings: Homo sapiens, time 3.0 day

Sequence of Histone deacetylase 2 (Q92769 whole entry): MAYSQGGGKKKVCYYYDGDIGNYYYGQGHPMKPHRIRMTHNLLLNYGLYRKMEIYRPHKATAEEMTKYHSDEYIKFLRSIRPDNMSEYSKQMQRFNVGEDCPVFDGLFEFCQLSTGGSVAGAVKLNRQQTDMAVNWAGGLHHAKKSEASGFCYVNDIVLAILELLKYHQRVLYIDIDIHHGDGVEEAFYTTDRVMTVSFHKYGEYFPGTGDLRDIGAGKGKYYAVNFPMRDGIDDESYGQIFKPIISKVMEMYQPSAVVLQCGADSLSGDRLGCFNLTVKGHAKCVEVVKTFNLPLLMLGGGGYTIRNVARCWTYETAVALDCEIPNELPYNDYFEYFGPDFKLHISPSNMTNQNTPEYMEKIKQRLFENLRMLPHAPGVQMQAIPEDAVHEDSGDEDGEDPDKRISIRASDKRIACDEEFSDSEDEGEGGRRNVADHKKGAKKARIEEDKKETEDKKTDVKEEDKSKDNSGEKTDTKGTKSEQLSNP
Sequence of Histone deacetylase 1 (Q13547 whole entry): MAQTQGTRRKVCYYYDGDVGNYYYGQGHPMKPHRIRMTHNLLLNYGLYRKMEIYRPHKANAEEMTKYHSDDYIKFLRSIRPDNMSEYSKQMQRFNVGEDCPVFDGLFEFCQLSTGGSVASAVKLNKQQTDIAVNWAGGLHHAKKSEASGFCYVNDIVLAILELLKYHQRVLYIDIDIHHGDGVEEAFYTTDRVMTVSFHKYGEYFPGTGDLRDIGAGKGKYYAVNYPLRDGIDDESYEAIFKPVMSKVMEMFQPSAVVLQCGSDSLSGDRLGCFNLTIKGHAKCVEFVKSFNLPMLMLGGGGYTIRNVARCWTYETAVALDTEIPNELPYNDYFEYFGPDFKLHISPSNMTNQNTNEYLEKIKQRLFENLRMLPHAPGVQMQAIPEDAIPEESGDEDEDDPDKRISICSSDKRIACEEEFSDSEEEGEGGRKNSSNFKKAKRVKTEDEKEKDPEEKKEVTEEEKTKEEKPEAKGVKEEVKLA

COc1cc2c(cc1OC)C(=O)C(CC1CCN(Cc3ccc(NCc4ccc(C(=O)NO)cc4)cc3)CC1)C2 (stereo not given)
inhibition (Histone deacetylase 1): inactive
Activity (U-87 MG [1]): 90%
Activity (Astrocyte): Non-Toxic
Activity (GBM [2]): Active
IC50 [3]: 49.6 nM
inhibition (Histone deacetylase 2): inactive
IC50 (U-87 MG [4]): 6170 nM
IC50 (Histone deacetylase 8): 2150 nM

O=C(CCCCCCC(=O)Nc1ccccc1)NO [VORINOSTAT]
Activity (A 172 [5]): inactive
Activity (Astrocyte): Toxic
Activity (GBM [2]): Active

COc1cc2c(cc1OC)C(=O)C(CC1CCN(S(=O)(=O)c3cccc(/C=C/C(=O)NO)c3)CC1)C2 (stereo not given)
IC50 (Histone deacetylase 1): 1670 nM
IC50 [3]: 110 nM
IC50 (Histone deacetylase 2): 3360 nM
IC50 (U-87 MG [4]): 6380 nM
IC50 (Histone deacetylase 8): 1720 nM

COc1cc2c(cc1OC)C(=O)C(CC1CCN(Cc3cccc(NC(=O)CCCCCCC(=O)NO)c3)CC1)C2 (stereo not given)
Activity (A 172 [6]): Active
IC50 (Histone deacetylase 1): 611 nM
Activity (U-87 MG [1]): 90%
Activity (A 172 [7]): Active
Activity (Astrocyte): Non-Toxic
Activity (GBM [2]): Active
IC50 [3]: 51.5 nM
Activity (A 172 [8]): Active
IC50 (Histone deacetylase 2): 1410 nM
IC50 (U-87 MG [4]): 4910 nM
Activity (A 172 [9]): Active
IC50 (Histone deacetylase 8): 1240 nM

COc1cc2c(cc1OC)C(=O)C(CC1CCN(Cc3ccc(C(=O)NO)cc3)CC1)C2 (stereo not given)
IC50 (U-87 MG [4]): 46000 nM

COc1cc2c(cc1OC)C(=O)C(CC1CCN(Cc3ccccc3)CC1)C2 (stereo not given) [DONEPEZIL]
Activity (A 172 [5]): inactive
inhibition (GBM [10]): inactive
inhibition (GBM [11]): inactive
Activity (U-87 MG [12]): 50%
Activity (Glioblastoma stem cell [13]): Active
Activity (GBM [2]): inactive
IC50 (U-87 MG [4]): 47200 nM
Activity (Glioblastoma stem cell [14]): Active

COc1cc2c(cc1OC)C(=O)C(CC1CCN(Cc3ccc(/C=C/C(=O)NO)cc3)CC1)C2 (stereo not given)
IC50 (Histone deacetylase 1): 2430 nM
Activity (U-87 MG [1]): 90%
Activity (Astrocyte): Toxic
Activity (GBM [2]): Active
IC50 [3]: 239 nM
IC50 (Histone deacetylase 2): 500 nM
IC50 (U-87 MG [4]): 1760 nM
IC50 (Histone deacetylase 8): 113 nM

COc1cc2c(cc1OC)C(=O)C(CC1CCN(C(=O)CCCCCCCC(=O)NO)CC1)C2 (stereo not given)
IC50 (U-87 MG [4]): 42800 nM

COc1cc2c(cc1OC)C(=O)C(CC1CCN(C(=O)CCCCCCCCC(=O)NO)CC1)C2 (stereo not given)
IC50 (U-87 MG [4]): 29100 nM

COc1cc2c(cc1OC)C(=O)C(CC1CCN(S(=O)(=O)c3ccc(/C=C/C(=O)NO)cc3)CC1)C2 (stereo not given)
IC50 (U-87 MG [4]): 17000 nM

COc1cc2c(cc1OC)C(=O)C(CC1CCN(C(=O)CCCCCC(=O)NO)CC1)C2 (stereo not given)
IC50 (U-87 MG [4]): 43200 nM

COc1cc2c(cc1OC)C(=O)C(CC1CCN(Cc3ccc(NC(=O)CCCCCCC(=O)NO)cc3)CC1)C2 (stereo not given)
Activity (A 172 [6]): Active
Activity (U-87 MG [15]): Active
Activity (A 172 [5]): Active
IC50 (Histone deacetylase 1): 313 nM
Activity (U-87 MG [1]): 90%
Activity (A 172 [16]): Active
Activity (Glioblastoma stem cell [17]): Active
Activity (A 172 [7]): Active
inhibition (GBM [18]): Active
Activity (Glioblastoma stem cell [13]): Active
Activity (Astrocyte): Non-Toxic
Activity (A 172 [19]): Active
Activity (GBM [2]): Active
IC50 [3]: 2.7 nM
Activity (A 172 [8]): Active
IC50 (Histone deacetylase 2): 710 nM
Activity (A 172 [20]): Active
IC50 (U-87 MG [4]): 5780 nM
Activity (Glioblastoma stem cell [14]): Active
Activity (A 172 [21]): Active
Activity (A 172 [9]): Active
IC50 (Histone deacetylase 8): 842 nM
Activity (A 172 [22]): Active
Activity (Glioblastoma stem cell [23]): Active
inhibition (GBM [24]): Active

COc1cc2c(cc1OC)C(=O)C(CC1CCN(C(=O)CCCCCCC(=O)NO)CC1)C2 (stereo not given)
IC50 (U-87 MG [4]): 8010 nM
